Measurements published in US5882881A, “Inhibition of cyst formation by cytoskeletal specific drugs” (priority 1998, dated 1999).

Key:
[1] = test system: normal phenotype, heterozygous mice; test: Body weight of normal phenotype heterozygous C57BL/6 mice (FIG. 3A); assay type: in vivo, mouse; settings: versus methotrexate or non-treated
Text: (§1) […]. The body weights of untreated, taxol treated and methotrexate treated C57BL/6j mice between day 10 and day 45 after birth is shown in A. The body weights of untreated, taxol treated and methotrexate treated cpk mice are shown in B. Results in each group are the mean of 6 animals. Untreated and methotrexate treated cpk mice died between days 26 and 28. […].
(§2) In a related procedure I treated both normal C57BL/6 and cpk mice at 11-14 days of age with either taxol or methotrexate as described above. Six untreated mice served as controls in this experiment.

Murine CPK Cells [2] = test: In vitro cyst formation and cyst size in suspension culture of murine CPK cells; assay type: cell-based, mouse; settings: day 21, 24 h, final concentration per Table II (cytosine arabinoside 20 μg/ml, α-amanitin 100 ng/ml, cycloheximide 49 μg/ml, ouabain 1 mM, amiloride 1 mM, brefeldin-A 10 μg/ml, griseofulvin 350 μM, colchicine 10 μM, vinblastine 1 μM, nocodazole 30 μM, taxol 25 μM, cytochalasins 10 μM)
[3] = humans; approximately; cited from earlier work
Murine CPK Cells [4] = test: 3H-thymidine incorporation (DNA synthesis) in CPK cell suspension culture; assay type: cell-based, mouse; settings: ± SD, three wells; concentrations as in Table II; control 100 ± 11; 1440 min
Method: Growth studies were performed on kidney cells derived from day 10, 21 and 28 postnatal CPK mice and their normal littermates. Immediately after cells were placed in suspension or monolayer culture, 3 μCi of ^3 H-thymidine (^3 H-dThd, specific activity 45 Ci/mmol, Amersham, Ill.) was placed in each well of the culture plate. DNA synthesis was assessed by incorporation of ^3 H-dThd over the 24 hours of culture, and trichloroacetic acid-insoluble. radioactivity was expressed as cpm/μg protein. Protein was assayed with the BCA reagent as described by the manufacturer (Pierce, Rockford, Ill.). At 24 hours of culture, an aliquot (0.2 ml) of the suspension was removed and the number of cysts counted using an inverted microscope. The number of cysts was expressed as a ratio factored for the total number of cells in the suspension at 24 hours of culture. Cyst diameter was measured at 100× using an eyepiece micrometer.
The effects of various metabolic inhibitors on cyst formation were studied in cultures derived from day 21 postnatal CPK mice. […] Taxol (25 μM), a microtubule specific inhibitor, was from Calbiochem (La Jolla, Calif.). All other chemicals were obtained from Sigma Chemical Co. Cytosine arabinoside was added at the final concentration of 20 μg/ml to inhibit DNA synthesis; α-amanitin at 100 ng/ml to inhibit RNA synthesis; cycloheximide at 40 μg/ml to inhibit protein synthesis; amiloride at 1 mM to inhibit the renal epithelial Na^+ -H^+ exchange; ouabain at 0.5 mM to inhibit Na^+ -K^+ -ATPase; brefeldin-A at 10 μg/ml to inhibit transport of surface proteins; griseofulvin at 350 μM to inhibit microtubule function; colchicine at 10 μM to inhibit microtubule polymerization; and cytochalasin-B and cytochalasin-D at 10 μM to depolymerize actin filaments.
In the presence of these metabolic inhibitors in vitro, cyst formation was noted to be either present or absent; if present, the diameters of 20 cysts from a 0.2 ml aliquot were measured. In the same samples, ^3 H-dThd incorporation was also measured as described above. […] After each wash, cell clusters were collected by centrifuging at 200×g for 1 minute and the supernatant discarded. Washed cell clusters were resuspended in the original volume of growth medium without inhibitors, placed in agarose coated wells and incubated at 37° C. in a moisture saturated incubator in 5% CO2 and air.
In this table, the mean cyst size is reported as ±SD with a measurement of twenty cysts. The ^3 H-dThd incorporation is reported as ±SD using measurements of three wells. The * indicates […] versus control. […] The entries listed as "NA" in the table indicate data that is not available.

cpk mice = test: Growth and survival of cpk mice treated with taxol or methotrexate (FIG. 3B); assay type: in vivo, mouse
Text: as §1, §2

cpk mice kidney = assay type: in vivo, mouse; settings: weekly taxol for 200 days
Method: […]. Untreated and methotrexate (MTX) treated polycystic cpk mice all died before 30 days of age. […]. The dotted line starting at day 120 indicates the number and age of apparently healthy taxol treated polycystic mice that were sacrificed for histology studies. Pairs of mice were sacrificed at 120 days, 182 days and 210 days of age.
Eleven homozygous cpk mice, raised and identified as in Example 6 were treated with 15 μl of 10 mg/ml taxol in DMSO through intraperitoneal injection beginning 11-14 days after birth. Following the first treatment, the mice were administered with the same treatment once every week thereafter. As controls, 6 cpk mice were treated with 15 μl intraperitoneal injections of DMSO beginning 10-12 days after birth and then once every week thereafter.

human ADPKD cells = test: In vitro cyst formation in human ADPKD cells; assay type: cell-based; settings: human ADPKD cells; cytosine arabinoside 20 μg/ml, α-amanitin 100 ng/ml, cycloheximide 40 μg/ml, amiloride 1 mM, ouabain 0.5 mM, taxol 25 μM, colchicine 10 μM, vinblastine 1 μM, cytochalasins 10 μM
Text: I have substituted human ADPKD cells for the murine CPK cells of Example 1 and produced similar results. Other cyst-forming cells are believed to also form suitable results with only minor deviations from the conditions set forth in Example 1.
Cell suspensions were separated from debris by sedimentation at unit gravity and decantation. After washing once with DMEM/F12 medium, cells were suspended in DMEM/F12 supplemented with 1.2 gm/l sodium bicarbonate, 1× insulin, transferrin and selenium (Sigma # 11184), 1% lipids supplement (Sigma # L4646) and 1× antibiotic/antimycotic (Sigma # A7292) at a density of 5×10^4 cells per ml. Two mls of the cell suspension were aliquoted into each well of a six-well plastic cell culture plates that had been precoated with 2 mls of 1% low melting point agarose in DMEM/F12 and incubated at 37° C. in a humidified atmosphere of 5% CO2 in air.
I used the in vitro cyst formation system of the present invention to analyze compounds that affect the process of cyst formation. To determine the therapeutic effectiveness of an agent, cyst-forming cells are suspended in a medium to which the agent has been added. These cells are then cultured on a solid phase without formation of a layer of cells on the surface, such as in the assay system described in Example 1. The extent to which the cells actually form cysts can be detected and compared to the extent of cyst formation expected if no agent were added. If the amount of cyst formation is lower than expected, then the agent is a good candidate for therapeutic intervention of cystic diseases.

For `CC(=O)O[C@H]1C(=O)[C@@]2(C)[C@H]([C@H](OC(=O)c3ccccc3)[C@]3(O)C[C@H](OC(=O)[C@H](O)[C@@H](NC(=O)c4ccccc4)c4ccccc4)C(C)=C1C3(C)C)[C@]1(OC(C)=O)CO[C@@H]1C[C@@H]2O` [Taxol], the “weight gain (in words)” value [1] is listed as “gained less weight”, the “Cyst Formation (+/-)” value (Murine CPK Cells [2]) is listed as “-” and the in vivo half-life [3] is listed as 6 to 12 h. For the same compound, the “^3 H-dThd Incorporation” value (Murine CPK Cells [4]) was 90 ± 11 % control, the average survival (cpk mice; FIG. 3, mean of 6 animals) was 45 ± 2 days and the “weight gain (in words)” value (cpk mice; cpk mice, versus DMSO or methotrexate) was “gained weight at substantially the same or lower rate”. The “lifespan (in words)” value (cpk mice; versus DMSO or methotrexate-treated mice) was “substantially longer lifespans”, the “kidney histology of control mice” value (cpk mice kidney) was “normal kidney histology” and the “cyst formation (in words)” value (human ADPKD cells) was “reversibly inhibited in vitro cyst formation in both models”.
